Results from publication PMC10999543, “Identification of kinase modulators as host-directed therapeutics against intracellular methicillin-resistant Staphylococcus aureus” (Frontiers in Cellular and Infection Microbiology, 2024).
Where two headings read alike, the source gives them in different places.

Assays:
intracellular MRSA = type: cell-based, Staphylococcus aureus; details: for %GFP+ rep 1 / z-scoreMRSA+ rep 1: replicate 1; for %GFP+ rep 2 / z-scoreMRSA+ rep 2: replicate 2; for %GFP+ rep 3 / z-scoreMRSA+ rep 3: replicate 3; for z-scoreMRSA+ mean: mean of 3 replicates
Method in brief: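 HeLa cells infected with GFP-MRSA (MOI ~6.8), gentamicin-cleared, then incubated overnight at 37°C with inhibitors plus 5 µg/ml gentamicin; DMSO as negative control, triplicates. Flow cytometry gave % GFP-positive cells and cell count (viability surrogate); hits by plate z-score (MRSA ≤ -2, HeLa count ≥ -3).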

HeLa cells = assay: Compound screen by flow cytometry: HeLa cell count as surrogate readout of cell viability (z-scoreHeLa); type: cell-based, human
Method in brief: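 HeLa cells were infected with GFP-MRSA (mean MOI 6.8 ± 4.6) for 1 h, and extracellular bacteria were killed with 30 µg/ml gentamicin. Cells were then incubated overnight with kinase inhibitors in 5 µg/ml gentamicin, in triplicate against DMSO controls. Flow-cytometric cell count served as a viability surrogate, expressed as a plate z-score.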

[1] = PKIS compound screen raw data, MRSA-infected HeLa cells
[2] = Yes/No: effect without cell death
[3] = compound screen, MRSA-infected HeLa cells
[4] = PKIS compound screen raw data, HeLa cell count, replicate 1
[5] = PKIS compound screen raw data, HeLa cell count, replicate 2
[6] = PKIS compound screen raw data, HeLa cell count, replicate 3
[7] = compound screen, HeLa cell count, mean of 3 replicates
[8] = compound screen, HeLa cell count, replicate 1
[9] = compound screen, HeLa cell count, replicate 2
[10] = compound screen, HeLa cell count, replicate 3
[11] = PKIS compound screen, MRSA-infected HeLa cells
[12] = PKIS compound screen, Yes/No call (effect without cell death)
[13] = PKIS compound screen, Yes/No call on z-scoreMRSA+
[14] = PKIS compound screen, HeLa cell count, mean of 3 replicates
[15] = PKIS compound screen, HeLa cell count, replicate 1
[16] = PKIS compound screen, HeLa cell count, replicate 2
[17] = PKIS compound screen, HeLa cell count, replicate 3
[18] = PKIS compound screen, Yes/No call on z-scoreHeLa
[19] = PKIS compounds raw data, MRSA-infected HeLa cells
[20] = PKIS compounds raw data, replicate 1, HeLa cell count
[21] = PKIS compounds raw data, replicate 2, HeLa cell count
[22] = PKIS compounds raw data, replicate 3, HeLa cell count
[23] = PKIS compound screen, Yes/No call
[24] = PKIS compound screen, mean of 3 replicates
[25] = PKIS compound screen, replicate 1
[26] = PKIS compound screen, replicate 2
[27] = PKIS compound screen, replicate 3

Cc1cccc(-c2nc(Nc3ccc4c(cnn4C)c3)c3ccccc3n2)n1 [GW876731X]
%GFP+ rep 1 (intracellular MRSA; [1]): 19.5% | %GFP+ rep 2 (intracellular MRSA; [1]): 19.1% | %GFP+ rep 3 (intracellular MRSA; [1]): 19.8% | effect (intracellular MRSA; Yes/No call from z-scoreMRSA+): No | hit (intracellular MRSA; [2]): No | z-scoreMRSA+ mean (intracellular MRSA; [3]): -0.09 | z-scoreMRSA+ rep 1 (intracellular MRSA; [3]): 0.19 | z-scoreMRSA+ rep 2 (intracellular MRSA; [3]): -0.0842 | z-scoreMRSA+ rep 3 (intracellular MRSA; [3]): -0.39 | cell count rep 1 (HeLa cells; [4]): 29057 | cell count rep 2 (HeLa cells; [5]): 27157 | cell count rep 3 (HeLa cells; [6]): 25742 | cell death (HeLa cells; Yes/No call from z-scoreHeLa): No | z-scoreHeLa mean (HeLa cells; [7]): 0.49 | z-scoreHeLa rep 1 (HeLa cells; [8]): -0.19 | z-scoreHeLa rep 2 (HeLa cells; [9]): 0.32 | z-scoreHeLa rep 3 (HeLa cells; [10]): 1.33

CN1CCC(n2cnc(-c3ccc(F)cc3)c2-c2ccnc(Nc3ccccc3)n2)CC1 [SB-236687]
%GFP+ rep 1 (intracellular MRSA; [1]): 10.0% | %GFP+ rep 2 (intracellular MRSA; [1]): 12.2% | %GFP+ rep 3 (intracellular MRSA; [1]): 12.7% | z-scoreMRSA+ mean (intracellular MRSA; [11]): -2.18 | z-scoreMRSA+ rep 1 (intracellular MRSA; [11]): -2.49 | z-scoreMRSA+ rep 2 (intracellular MRSA; [11]): -1.90 | z-scoreMRSA+ rep 3 (intracellular MRSA; [11]): -2.16 | hit (intracellular MRSA; [12]): Yes | effect (intracellular MRSA; [13]): Yes | cell count rep 1 (HeLa cells; [4]): 21592 | cell count rep 2 (HeLa cells; [5]): 24622 | cell count rep 3 (HeLa cells; [6]): 40771 | z-scoreHeLa mean (HeLa cells; [14]): -0.54 | z-scoreHeLa rep 1 (HeLa cells; [15]): 0.22 | z-scoreHeLa rep 2 (HeLa cells; [16]): -1.90 | z-scoreHeLa rep 3 (HeLa cells; [17]): 0.04 | cell death (HeLa cells; [18]): No

Cl.Cl.Cl.Fc1ccc(-c2ncn(C3CCNCC3)c2-c2ccnc(Nc3ccccc3)n2)cc1 [SB-238039-R]
%GFP+ rep 1 (intracellular MRSA; [19]): 7.4% | %GFP+ rep 2 (intracellular MRSA; [19]): 6.7% | %GFP+ rep 3 (intracellular MRSA; [19]): 6.5% | effect (intracellular MRSA; Yes/No call from z-scoreMRSA+): Yes | hit (intracellular MRSA; [2]): Yes | z-scoreMRSA+ mean (intracellular MRSA; [3]): -2.31 | z-scoreMRSA+ rep 1 (intracellular MRSA; [3]): -1.86 | z-scoreMRSA+ rep 2 (intracellular MRSA; [3]): -2.29 | z-scoreMRSA+ rep 3 (intracellular MRSA; [3]): -2.78 | cell count rep 1 (HeLa cells; [20]): 1720 | cell count rep 2 (HeLa cells; [21]): 1088 | cell count rep 3 (HeLa cells; [22]): 3178 | cell death (HeLa cells; Yes/No call from z-scoreHeLa): No | z-scoreHeLa mean (HeLa cells; [7]): -2.33 | z-scoreHeLa rep 1 (HeLa cells; [8]): -2.76 | z-scoreHeLa rep 2 (HeLa cells; [9]): -2.40 | z-scoreHeLa rep 3 (HeLa cells; [10]): -1.81

Fc1ccc(-c2ncn(C3CCNCC3)c2-c2ccnc(Oc3ccc(F)c(F)c3)n2)cc1 [SB-253228]
%GFP+ rep 1 (intracellular MRSA; [1]): 13.5% | %GFP+ rep 2 (intracellular MRSA; [1]): 14.9% | %GFP+ rep 3 (intracellular MRSA; [1]): 15.9% | z-scoreMRSA+ mean (intracellular MRSA; [11]): -1.22 | z-scoreMRSA+ rep 1 (intracellular MRSA; [11]): -1.38 | z-scoreMRSA+ rep 2 (intracellular MRSA; [11]): -1.09 | z-scoreMRSA+ rep 3 (intracellular MRSA; [11]): -1.18 | hit (intracellular MRSA; [12]): No | effect (intracellular MRSA; [13]): No | cell count rep 1 (HeLa cells; [4]): 9973 | cell count rep 2 (HeLa cells; [5]): 28239 | cell count rep 3 (HeLa cells; [6]): 36229 | z-scoreHeLa mean (HeLa cells; [14]): -1.15 | z-scoreHeLa rep 1 (HeLa cells; [15]): -1.54 | z-scoreHeLa rep 2 (HeLa cells; [16]): -1.22 | z-scoreHeLa rep 3 (HeLa cells; [17]): -0.68 | cell death (HeLa cells; [18]): No

CN1C(=O)C(Nc2ccccc2)=C(c2ccccc2)C1=O [SB-300079]
effect (intracellular MRSA; [23]): No | hit (intracellular MRSA; [12]): No | z-scoreMRSA+ mean (intracellular MRSA; PKIS compound screen): -0.64 | z-scoreMRSA+ rep 1 (intracellular MRSA; PKIS compound screen): -0.99 | z-scoreMRSA+ rep 2 (intracellular MRSA; PKIS compound screen): -0.37 | z-scoreMRSA+ rep 3 (intracellular MRSA; PKIS compound screen): -0.55 | %GFP+ rep 1 (intracellular MRSA; [19]): 22.0% | %GFP+ rep 2 (intracellular MRSA; [19]): 24.1% | %GFP+ rep 3 (intracellular MRSA; [19]): 24.3% | cell death (HeLa cells; [23]): No | z-scoreHeLa mean (HeLa cells; [24]): 0.41 | z-scoreHeLa rep 1 (HeLa cells; [25]): -0.31 | z-scoreHeLa rep 2 (HeLa cells; [26]): 0.70 | z-scoreHeLa rep 3 (HeLa cells; [27]): 0.83 | cell count rep 1 (HeLa cells; [20]): 5536 | cell count rep 2 (HeLa cells; [21]): 7057 | cell count rep 3 (HeLa cells; [22]): 6914

COc1cccc(C2=C(Nc3ccc(Cl)c(C(=O)O)c3)C(=O)NC2=O)c1 [SB-390769]
effect (intracellular MRSA; [23]): No | hit (intracellular MRSA; [12]): No | z-scoreMRSA+ mean (intracellular MRSA; PKIS compound screen): 0.47 | z-scoreMRSA+ rep 1 (intracellular MRSA; PKIS compound screen): -0.05 | z-scoreMRSA+ rep 2 (intracellular MRSA; PKIS compound screen): 0.72 | z-scoreMRSA+ rep 3 (intracellular MRSA; PKIS compound screen): 0.73 | %GFP+ rep 1 (intracellular MRSA; [19]): 26.8% | %GFP+ rep 2 (intracellular MRSA; [19]): 29.8% | %GFP+ rep 3 (intracellular MRSA; [19]): 31.2% | cell death (HeLa cells; [23]): No | z-scoreHeLa mean (HeLa cells; [24]): 1.73 | z-scoreHeLa rep 1 (HeLa cells; [25]): 0.80 | z-scoreHeLa rep 2 (HeLa cells; [26]): 1.87 | z-scoreHeLa rep 3 (HeLa cells; [27]): 2.53 | cell count rep 1 (HeLa cells; [20]): 7373 | cell count rep 2 (HeLa cells; [21]): 8825 | cell count rep 3 (HeLa cells; [22]): 9583

CCN(CC)CCOc1ccc(Nc2ncc3cc(-c4c(Cl)cccc4Cl)c(=O)n(C)c3n2)cc1 [SB-601273]
%GFP+ rep 1 (intracellular MRSA; [1]): 32.3% | %GFP+ rep 2 (intracellular MRSA; [1]): 28.1% | %GFP+ rep 3 (intracellular MRSA; [1]): 25.0% | effect (intracellular MRSA; Yes/No call from z-scoreMRSA+): No | hit (intracellular MRSA; [2]): No | z-scoreMRSA+ mean (intracellular MRSA; [3]): 1.27 | z-scoreMRSA+ rep 1 (intracellular MRSA; [3]): 1.64 | z-scoreMRSA+ rep 2 (intracellular MRSA; [3]): 1.33 | z-scoreMRSA+ rep 3 (intracellular MRSA; [3]): 0.84 | cell death (HeLa cells): No | cell count rep 1 (HeLa cells; human): 895 | cell count rep 2 (HeLa cells; human): 949 | cell count rep 3 (HeLa cells; human): 1208 | z-scoreHeLa mean (HeLa cells; human): -2.54 | z-scoreHeLa rep 1 (HeLa cells; human): -2.49 | z-scoreHeLa rep 2 (HeLa cells; human): -2.58 | z-scoreHeLa rep 3 (HeLa cells; human): -2.55

CN(C)CCOc1ccc(-c2cc(-c3ccc(Cl)c(O)c3)c(-c3ccncc3)[nH]2)cc1.Cl.Cl [SB-684387-B]
%GFP+ rep 1 (intracellular MRSA; [1]): 13.0% | %GFP+ rep 2 (intracellular MRSA; [1]): 10.9% | %GFP+ rep 3 (intracellular MRSA; [1]): 11.1% | effect (intracellular MRSA; Yes/No call from z-scoreMRSA+): Yes | hit (intracellular MRSA; [2]): Yes | z-scoreMRSA+ mean (intracellular MRSA; [3]): -3.01 | z-scoreMRSA+ rep 1 (intracellular MRSA; [3]): -2.86 | z-scoreMRSA+ rep 2 (intracellular MRSA; [3]): -2.84 | z-scoreMRSA+ rep 3 (intracellular MRSA; [3]): -3.32 | cell count rep 1 (HeLa cells; [4]): 7005 | cell count rep 2 (HeLa cells; [5]): 6368 | cell count rep 3 (HeLa cells; [6]): 7752 | cell death (HeLa cells; Yes/No call from z-scoreHeLa): No | z-scoreHeLa mean (HeLa cells; [7]): 1.70 | z-scoreHeLa rep 1 (HeLa cells; [8]): 1.91 | z-scoreHeLa rep 2 (HeLa cells; [9]): 1.59 | z-scoreHeLa rep 3 (HeLa cells; [10]): 1.59
